Laboratory results as given in PubChem BioAssay AID1963867 (Molecular Pharmacology Branch, DTP, NCI, 2024).

Tested on: KRAS-mutant PDC tumor spheroid with HUVEC/MSC, viability
Assay: Anticancer human tumor 327498-153-R-J2-PDC patient-derived uterine carcinosarcoma cell line growth inhibition [KRAS2]
Details: for IC50: curve of first compound; for viability, T/C: stronger effect = lower value
Summary of the method: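 KRAS-mutant tumor cells were grown as spheroids with HUVEC endothelial cells and human MSCs as stroma. Targeted agents were tested alone and with KRAS pathway inhibitors. Doses started at or near clinical Cmax, or 10 microM, descending half-log.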

[1] = second compound 0.1 µM, first compound 0.0316 µM
[2] = second compound 0.1 µM, first compound 0.1 µM
[3] = second compound 0.1 µM, first compound 0.316 µM
[4] = second compound 0.1 µM, first compound 1 µM
[5] = second compound 0.1 µM, first compound 3.16 µM
[6] = second compound 0.1 µM, first compound 10 µM
[7] = second compound 0.316 µM, first compound 0.0316 µM
[8] = second compound 0.316 µM, first compound 0.1 µM
[9] = second compound 0.316 µM, first compound 0.316 µM
[10] = second compound 0.316 µM, first compound 1 µM
[11] = second compound 0.316 µM, first compound 3.16 µM
[12] = second compound 0.316 µM, first compound 10 µM
[13] = second compound 1 µM, first compound 0.0316 µM
[14] = second compound 1 µM, first compound 0.1 µM
[15] = second compound 1 µM, first compound 0.316 µM
[16] = second compound 1 µM, first compound 1 µM
[17] = second compound 1 µM, first compound 3.16 µM
[18] = second compound 1 µM, first compound 10 µM
[19] = second compound 3.16 µM, first compound 0.0316 µM
[20] = second compound 3.16 µM, first compound 0.1 µM
[21] = second compound 3.16 µM, first compound 0.316 µM
[22] = second compound 3.16 µM, first compound 1 µM
[23] = second compound 3.16 µM, first compound 3.16 µM
[24] = second compound 3.16 µM, first compound 10 µM
[25] = second compound 10 µM, first compound 0.0316 µM
[26] = second compound 10 µM, first compound 0.1 µM
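Note: spheroids exposed to agents for seven days before reading.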
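Throughout, for viability, T/C: 100% = DMSO vehicle wells so lower means fewer viable cells.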

COC(=O)c1ccc2c(C(=Nc3ccc(N(C)C(=O)CN4CCN(C)CC4)cc3)c3ccccc3)c(O)[nH]c2c1 + CC1OCC2(CCN(c3cnc(Sc4ccnc(N)c4Cl)c(N)n3)CC2)C1N
IC50 (second compound 0.1 µM): 0.561 µM | IC50 (second compound 0.316 µM): 0.157 µM | IC50 (second compound 1 µM): < 0.0316 µM | IC50 (second compound 3.16 µM): < 0.0316 µM | IC50 (second compound 10 µM): < 0.0316 µM | viability, T/C [1]: 76% | viability, T/C [2]: 68.8% | viability, T/C [3]: 58% | viability, T/C [4]: 43.8% | viability, T/C [5]: 26% | viability, T/C [6]: 26.8% | viability, T/C [7]: 57.1% | viability, T/C [8]: 50.7% | viability, T/C [9]: 44.7% | viability, T/C [10]: 34.5% | viability, T/C [11]: 16.2% | viability, T/C [12]: 18.8% | viability, T/C [13]: 40.4% | viability, T/C [14]: 41.9% | viability, T/C [15]: 33.3% | viability, T/C [16]: 20.6% | viability, T/C [17]: 14.5% | viability, T/C [18]: 11.4% | viability, T/C [19]: 36% | viability, T/C [20]: 33.4% | viability, T/C [21]: 23.5% | viability, T/C [22]: 14.1% | viability, T/C [23]: 11% | viability, T/C [24]: 10.1% | viability, T/C [25]: 28% | viability, T/C [26]: 27.9% | viability, T/C (second compound 10 µM, first compound 0.316 µM): 20.5% | viability, T/C (second compound 10 µM, first compound 1 µM): 13.3% | viability, T/C (second compound 10 µM, first compound 3.16 µM): 11.4% | viability, T/C (second compound 10 µM, first compound 10 µM): 9.36%

Cn1ncnc1[C@H]1c2n[nH]c(=O)c3cc(F)cc(c23)N[C@@H]1c1ccc(F)cc1 + C=CC(=O)N1CCN(c2nc(=O)n(-c3c(C)ccnc3C(C)C)c3nc(-c4c(O)cccc4F)c(F)cc23)C(C)C1
IC50 (second compound 0.1 µM): 0.00387 µM | IC50 (second compound 0.316 µM): 0.00346 µM | IC50 (second compound 1 µM): 0.00197 µM | IC50 (second compound 3.16 µM): 0.00174 µM | IC50 (second compound 10 µM): < 0.000316 µM | viability, T/C (second compound 0.1 µM, first compound 0.000316 µM): 63.7% | viability, T/C (second compound 0.1 µM, first compound 0.001 µM): 58.6% | viability, T/C (second compound 0.1 µM, first compound 0.00316 µM): 54% | viability, T/C (second compound 0.1 µM, first compound 0.01 µM): 36.1% | viability, T/C [1]: 22.2% | viability, T/C [2]: 15.6% | viability, T/C (second compound 0.316 µM, first compound 0.000316 µM): 54.8% | viability, T/C (second compound 0.316 µM, first compound 0.001 µM): 60.3% | viability, T/C (second compound 0.316 µM, first compound 0.00316 µM): 49.1% | viability, T/C (second compound 0.316 µM, first compound 0.01 µM): 36.9% | viability, T/C [7]: 19.8% | viability, T/C [8]: 15.4% | viability, T/C (second compound 1 µM, first compound 0.000316 µM): 59% | viability, T/C (second compound 1 µM, first compound 0.001 µM): 59.5% | viability, T/C (second compound 1 µM, first compound 0.00316 µM): 42.7% | viability, T/C (second compound 1 µM, first compound 0.01 µM): 34.1% | viability, T/C [13]: 21% | viability, T/C [14]: 15.9% | viability, T/C (second compound 3.16 µM, first compound 0.000316 µM): 55.9% | viability, T/C (second compound 3.16 µM, first compound 0.001 µM): 53% | viability, T/C (second compound 3.16 µM, first compound 0.00316 µM): 47% | viability, T/C (second compound 3.16 µM, first compound 0.01 µM): 32.4% | viability, T/C [19]: 21.7% | viability, T/C [20]: 14.8% | viability, T/C (second compound 10 µM, first compound 0.000316 µM): 39.9% | viability, T/C (second compound 10 µM, first compound 0.001 µM): 45.1% | viability, T/C (second compound 10 µM, first compound 0.00316 µM): 34.1% | viability, T/C (second compound 10 µM, first compound 0.01 µM): 20.5% | viability, T/C [25]: 16.9% | viability, T/C [26]: 13.4%

O=C(c1cc(Cc2n[nH]c(=O)c3ccccc23)ccc1F)N1CCN(C(=O)C2CC2)CC1 + C=CC(=O)N1CCN(c2nc(OCC3CCCN3C)nc3c2CCN(c2cccc4cccc(C)c24)C3)CC1CC#N
IC50 (second compound 0.0316 µM): 1.01 µM | IC50 (second compound 0.1 µM): 0.711 µM | IC50 (second compound 0.316 µM): 0.49 µM | IC50 (second compound 1 µM): 0.195 µM | IC50 (second compound 3.16 µM): < 0.0316 µM | viability, T/C (second compound 0.0316 µM, first compound 0.0316 µM): 64.1% | viability, T/C (second compound 0.0316 µM, first compound 0.1 µM): 74.5% | viability, T/C (second compound 0.0316 µM, first compound 0.316 µM): 104% | viability, T/C (second compound 0.0316 µM, first compound 1 µM): 50.3% | viability, T/C (second compound 0.0316 µM, first compound 3.16 µM): 26.2% | viability, T/C (second compound 0.0316 µM, first compound 10 µM): 16.8% | viability, T/C [1]: 61.5% | viability, T/C [2]: 58.4% | viability, T/C [3]: 56.4% | viability, T/C [4]: 47.5% | viability, T/C [5]: 25.6% | viability, T/C [6]: 15.7% | viability, T/C [7]: 58.8% | viability, T/C [8]: 56.6% | viability, T/C [9]: 51.2% | viability, T/C [10]: 44.2% | viability, T/C [11]: 20.2% | viability, T/C [12]: 14.4% | viability, T/C [13]: 47.8% | viability, T/C [14]: 56.3% | viability, T/C [15]: 47.1% | viability, T/C [16]: 38.8% | viability, T/C [17]: 19.2% | viability, T/C [18]: 13.8% | viability, T/C [19]: 2.26% | viability, T/C [20]: 2.16% | viability, T/C [21]: 2.51% | viability, T/C [22]: 2.55% | viability, T/C [23]: 3.25% | viability, T/C [24]: 0.24%
